Read-outs that look alike come from different tables or passages of the source.
Legend:
[1] = system: RSV; conditions: Antimicrobial Agents and Chemotherapy, September 2007, 3346-3353; cited from earlier work
[2] = Liver microsomal stability, human; assay type: in vitro ADME; conditions: human liver microsomes 0.5 mg/mL, 1 μM compound, NADPH, up to 45 min; for half-life at 1 μM: pooled liver microsomes, pH 7.4, read-out: Liver Microsomal Stability t½
Method: (§1) Compounds were subjected to the following assays to investigate liver microsomal stability and hepatocyte stability.
(§2) Pooled liver microsomes were purchased from a reputable commercial supplier and stored at −80° C. prior to use. Microsomes (final protein concentration 0.5 mg/mL), 0.1 M phosphate buffer pH 7.4 and test compound (final substrate concentration 1 μM; final DMSO concentration 0.25%) were pre-incubated at 37° C. prior to the addition of NADPH (final concentration 1 mM) to initiate the reaction. The final incubation volume was 50 μL. A control incubation was included for each compound tested where 0.1 M phosphate buffer pH 7.4 was added instead of NADPH (minus NADPH). Two control compounds were included with each species. All incubations were performed singularly for each test compound. Each compound was incubated for 0, 5, 15, 30 and 45 min. The control (minus NADPH) was incubated for 45 min only. The reactions were stopped by transferring incubate into acetonitrile at the appropriate time points, in a 1:3 ratio. The termination plates are centrifuged at 3,000 rpm for 20 min at 4° C. to precipitate the protein. Following protein precipitation, the sample supernatants were combined in cassettes of up to 4 compounds, internal standard added, and samples analysed by LC-MS/MS. From a plot of ln peak area ratio (compound peak area/internal standard peak area) against time, the gradient of the line was determined. Subsequently, half-life (t1/2) and intrinsic clearance (CLint) were calculated.

[3] = Hepatocyte stability, human; assay type: in vitro ADME; conditions: human hepatocytes 0.5×10^6 viable cells/mL, 3 μM compound, up to 60 min; for half-life at 3 μM: cryopreserved pooled hepatocytes, read-out: Liver Hepatocyte Stability t½
Method: as §1
(§3) Hepatocyte Incubation: Experimental Procedure
(§4) Cryopreserved pooled hepatocytes were purchased from a reputable commercial supplier and stored in liquid nitrogen prior to use. Williams E media supplemented with 2 mM L-glutamine and 25 mM HEPES and test compound (final substrate concentration 3 μM; final DMSO concentration 0.25%) are pre-incubated at 37° C. prior to the addition of a suspension of cryopreserved hepatocytes (final cell density 0.5×10^6 viable cells/mL in Williams E media supplemented with 2 mM L-glutamine and 25 mM HEPES) to initiate the reaction. The final incubation volume is 500 μL. Two control compounds were included with each species, alongside appropriate vehicle control. The reactions are stopped by transferring 50 μL of incubate to 100 μL acetonitrile containing internal standard at the appropriate time points. Samples were removed at 6 time points (0, 5, 15, 30, 45 and 60 min) over the course of a 60 min experiment. The termination plates are centrifuged at 2500 rpm at 4° C. for 30 min to precipitate the protein. Following protein precipitation, the sample supernatants were combined in cassettes of up to 4 compounds and analysed using generic LC-MS/MS conditions. From a plot of ln peak area ratio (compound peak area/internal standard peak area) against time, the gradient of the line is determined. Subsequently, half-life (t½) and intrinsic clearance (CLint) were calculated.

[4] = Hepatocyte stability, dog; assay type: in vitro ADME; conditions: dog hepatocytes 0.5×10^6 viable cells/mL, 3 μM compound, up to 60 min; for half-life at 3 μM: cryopreserved pooled hepatocytes, read-out: Liver Hepatocyte Stability t½
Method: as §1, §3, §4

[5] = Liver microsomal stability, rat; assay type: in vitro ADME; conditions: rat liver microsomes 0.5 mg/mL, 1 μM compound, NADPH, up to 45 min; for half-life at 1 μM: pooled liver microsomes, pH 7.4, read-out: Liver Microsomal Stability t½
Method: as §1, §2

[6] = system: RSV (RSV A2 ECACC, 0709161v); assay: RSV plaque reduction assay; assay type: cell-based, respiratory syncytial virus; conditions: mean of at least two experiments unless noted (n = 1)
Procedure, shortened: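 Eight-point compound dilutions were premixed with RSV A2 (100 PFU/well) and applied to confluent Hep-G2 cells for 2 h, followed by a 2-day incubation at 37° C. under compound-containing 0.8% CMC overlay. EC50 comes from immunostained plaque counts relative to untreated virus wells, averaged over ≥2 runs.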

[7] = Hepatocyte stability, rat; assay type: in vitro ADME; conditions: rat hepatocytes 0.5×10^6 viable cells/mL, 3 μM compound, up to 60 min; for half-life at 3 μM: cryopreserved pooled hepatocytes, read-out: Liver Hepatocyte Stability t½
Method: as §1, §3, §4

[8] = cell toxicity CC50; assay type: cell-based; conditions: human; Hep-G2 cells; mean of at least two experiments; read-out: Cell Cytotoxicity CC50
[9] = Rat pharmacokinetics in vivo (IV 1 mg/kg, PO 10 mg/kg); design: species or system Male rats [Sprague Dawley (SD)]; conditions: male SD rat; for AUC(0-t): read-out: PO AUClast; for Cmax: PO 10 mg/kg study; for concentration at 8 h: read-out: C 8 h; for F: PO 10 mg/kg vs IV 1 mg/kg
Method: The pharmacokinetics of compounds were studied in vivo in rats at doses of 1 mg/kg (IV) and 10 mg/kg (PO).
Male rats [Sprague Dawley (SD)] surgically prepared with a jugular vein cannula were treated with experimental compounds via intravenous administration (IV; n=3; 1 mg/kg) or oral administration (PO; n=3; 10 mg/kg). Compounds were formulated as a solution in 40:60 dimethylacetamide:saline (IV administration) and a solution of 10% DMSO, 10% cremaphor in water (80%) (PO administration). […] Serial blood samples were collected via the cannula at 0.02, 0.08, 0.25, 0.5, 1, 2, 4, 6, 8 and 24 h post IV dosing of compound, and at 0.08, 0.25, 0.5, 1, 2, 4, 6, 8 and 24 h post oral dosing of compound, and plasma was prepared by centrifugation and stored immediately at −80° C. Samples were subsequently thawed, prepared for analysis by protein precipitation with acetonitrile, and analysed by tandem LCMS using electrospray ionisation using a matrix-matched calibration curve. PK parameters were calculated from the resulting data.

[10] = Liver microsomal stability, dog; assay type: in vitro ADME; conditions: dog liver microsomes 0.5 mg/mL, 1 μM compound, NADPH, up to 45 min; for half-life at 1 μM: pooled liver microsomes, pH 7.4, read-out: Liver Microsomal Stability t½
Method: as §1, §2

[11] = system: Hep-G2 cells; assay: cell toxicity CC50; assay type: cell-based; conditions: mean of at least two experiments, read-out: Cell Cytotoxicity CC50
[12] = human respiratory syncytial virus, HepG2, read-out: RSV A2 Plaque EC50, RSV A2 in Hep-G2 cells
[13] = Sprague Dawley, plasma, IV 1 mg/kg
[14] = Sprague Dawley, plasma, IV 1 mg/kg, read-out: IV t½ (converted)
[15] = Sprague Dawley, plasma, IV 1 mg/kg, read-out: Vd
[16] = Sprague Dawley, plasma, PO 10 mg/kg
[17] = Sprague Dawley, plasma, PO 10 mg/kg, read-out: PO t½ (converted)
[18] = Sprague Dawley, plasma, IV 1 mg/kg, read-out: Cmax

Row | Compound | half-life at 1 μM [2] [h] | half-life at 3 μM [3] [h] | half-life at 3 μM [4] [h] | half-life at 1 μM [5] [h] | EC50 [6, 12] [nM] | half-life at 3 μM [7] [h] | CC50 [8] [nM] | clearance [9, 13] [mL/min/kg] | half-life [9, 14] [h] | Vd [9, 15] [L/kg] | AUC(0-t) [9, 16] [ng·h/mL] | half-life [9, 17] [h] | Cmax [9, 18] [ng/mL] | concentration at 8 h ([9]; Sprague Dawley, plasma at 8 h) [ng/mL] | F [9] [%] | half-life at 1 μM [10] [h] | other results
1 | O=C(Nc1ccccc1F)N[C@H]1N=C(c2ccccc2)c2ccccc2NC1=O [RSV604] | – | – | – | – | – | – | – | – | – | – | – | – | – | – | – | – | anti-RSV activity [1]: sub-micromolar anti-RSV activity
2 | C[C@@H]1CCn2nc(-c3ccccc3F)c(C(=O)N[C@H]3N=C(c4ccccc4)c4cccc(F)c4NC3=O)c2O1 [Example 25, (5R)-N-[(3S)-9-fluoro-2-oxo-5-phenyl-1,3-dihydro-1,4-benzodiazepin-3-yl]-2-(2-fluorophenyl)-5-methyl-6,7-dihydro-5H-pyrazolo[5,1-b][1,3]oxazine-3-carboxamide] | 16.8 | 4.73 | > 3.1 | > 2.33 | 24 | 1.8 | > 25000 | 4.7 | 2.2 | 0.6 | 14900 | 3.4 | 1880 | 812 | 40.3 | > 2.33 | –
3 | (5R)-2-(3-Fluoropyridin-4-yl)-5-methyl-N-[(3S)-9-fluoro-2-oxo-5-phenyl-1,3-dihydro-1,4-benzodiazepin-3-yl]-6,7-dihydro-5H-pyrazolo[5,1-b][1,3]oxazine-3-carboxamide [Example 51] | – | – | – | – | – | – | – | – | – | – | – | – | – | – | 44.3 | – | Liver Microsomal Stability t½ [2]: 1.04 h; Liver Hepatocyte Stability t½ [3]: 1.47 h; Liver Hepatocyte Stability t½ [4]: 16.4 h; Liver Microsomal Stability t½ [5]: 1.1 h; EC50 ([6]; RSV A2 in Hep-G2 cells, read-out: RSV A2 Plaque EC50): 80 nM; Liver Hepatocyte Stability t½ [7]: 1.88 h; CC50 [11]: > 25000 nM; Cl ([9]; IV 1 mg/kg): 46.4 mL/min/kg; IV t½ ([9]; IV 1 mg/kg): 0.48 h; Vd ([9]; IV 1 mg/kg): 1.0 L/kg; PO AUClast ([9]; PO 10 mg/kg): 1582 ng·h/mL; PO t½ ([9]; PO 10 mg/kg): 1.1 h; Cmax ([9]; IV 1 mg/kg): 730 ng/mL; C 8 h ([9]; plasma at 8 h): 7.6 ng/mL; Liver Microsomal Stability t½ [10]: > 2.33 h
4 | C[C@H]1CCn2nc(-c3ccccc3F)c(C(=O)N[C@H]3N=C(c4ccccc4)c4cccc(F)c4NC3=O)c2O1 [Example 27, (5S)-N-[(3S)-9-fluoro-2-oxo-5-phenyl-1,3-dihydro-1,4-benzodiazepin-3-yl]-2-(2-fluorophenyl)-5-methyl-6,7-dihydro-5H-pyrazolo[5,1-b][1,3]oxazine-3-carboxamide] | 2.25 | > 3.1 | > 3.1 | 1.4 | 20 | 8.08 | > 25000 | 24.9 | 0.72 | 0.9 | 3140 | 2.8 | 960 | 75.9 | 49.6 | 7.72 | –

From US12678446B2 (PFIZER INC., priority 2020, dated 2026)
